Measured values taken from patent EP1321493A1, “Method for enhancing the solubility of a colorant” (DSM N.V., priority 2001, dated 2003).

Experiments:
[1] = Solubility / concentration of colorant in toluene; assay type: physicochemical; details: pure colorant
[2] = according to The Sigma-Aldrich Handbook of Stains, Dyes and Indicators; cited from earlier work

Row | solubility in toluene (in words) [1] | Structure (SMILES) | maximum solubility of the pure dye in water [2]
1 | insoluble | Cl.Cl.Nc1ccc(N=Nc2cccc(N=Nc3ccc(N)cc3N)c2)c(N)c1 [Basic Brown 1] | 
2 |  | CCN(CC)c1ccc(C(=C2C=CC(=[N+](CC)CC)C=C2)c2ccc(S(=O)(=O)[O-])cc2S(=O)(=O)[O-])cc1.[Na+] [Acid Blue 1] | 3,0%
3 |  | CC1(C)Nc2cccc3c(N=Nc4ccc(N=Nc5ccccc5)c5ccccc45)ccc(c23)N1 [Solvent Black 3] | 0.01%
4 |  | O=C1/C(=C2\Nc3ccc(S(=O)(=O)[O-])cc3C2=O)Nc2ccc(S(=O)(=O)[O-])cc21.[Na+].[Na+] [Acid Blue 74] | 0.3%
